11 compounds from ChEMBL document CHEMBL1201861, “Genomics of Drug Sensitity in Cancer screening data, Wellcome Trust Sanger Institute” can be followed below.

What all share (experiment): cells
Common to all, as to type: functional, cell-based, Homo sapiens

Experiment [1] deals with MC-CAR. As to conditions: Homo sapiens, MC-CAR.
Description: SANGER: Inhibition of human MC-CAR cell growth in a cell viability assay.
Experiment [2] relates to U-698-M. The note with it: Homo sapiens, U-698-M.
Description: SANGER: Inhibition of human U-698-M cell growth in a cell viability assay.
For experiment [3], the system named is SIG-M5. The note with it: Homo sapiens, SIG-M5.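 Further: cell viability assay read-out, measuring how strongly growth of cultured human SIG-M5 cells is inhibited.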
Description: SANGER: Inhibition of human SIG-M5 cell growth in a cell viability assay.
In experiment [4] the test system is MDA-MB-134-VI. The note with it: Homo sapiens, MDA-MB-134-VI.
Description: SANGER: Inhibition of human MDA-MB-134-VI cell growth in a cell viability assay.
Experiment [5] has as its system NB1. The note with it: Homo sapiens, NB1.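 Further: reduction of NB1 cell proliferation, read out with a viability assay.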
Description: SANGER: Inhibition of human NB1 cell growth in a cell viability assay.
Experiment [6] concerns EHEB. The note with it: Homo sapiens, EHEB.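 Further: growth inhibition of human EHEB cells, read out with a cell viability assay.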
Description: SANGER: Inhibition of human EHEB cell growth in a cell viability assay.
Experiment [7] relates to NCI-H187. As to conditions: Homo sapiens, NCI-H187.
Description: SANGER: Inhibition of human NCI-H187 cell growth in a cell viability assay.
Experiment [8] concerns RL. As to conditions: Homo sapiens, RL.
Description: SANGER: Inhibition of human RL cell growth in a cell viability assay.

pIC50: −log10 of the molar value.

Broadly, the pIC50 is the IC50 on a negative log10 scale, so that one unit is a factor of ten. Read a low pIC50 as a large IC50. Take `CC[C@H](CO)Nc1nc(NCc2ccccc2)c2ncn(C(C)C)c2n1` [SELICICLIB]: the negative logarithm of the IC50 (pIC50) in experiment [1] is below 4.80; in experiment [2], below 4.80; in experiment [3] it was below 4.80; in experiment [4], below 4.80; in experiment [5], 4.91; in experiment [6] it was below 4.80. The negative-log IC50 (pIC50) in experiment [7] and in experiment [8] was below 4.80 in each case.

Turning to `COc1cc2ncn(-c3cc(OCc4ccccc4C(F)(F)F)c(C(N)=O)s3)c2cc1OC` [GW843682X], the pIC50 is 7.12 in experiment [1]; below 6.59 in experiment [2]; 7.68 in experiment [3]; below 6.59 in experiment [4]; 7.45 in experiment [5]; below 6.59 in experiment [6]. In addition, the pIC50 is 7.63 in experiment [7] and below 6.59 in experiment [8].

As for `C#Cc1cccc(Nc2ncnc3cc(OCCOC)c(OCCOC)cc23)c1` [ERLOTINIB], the pIC50 in experiment [1], in experiment [2], in experiment [3], in experiment [6], in experiment [7] and in experiment [8] was below 5.70 in each case.

As to `COc1cc2ncn(-c3cc(OCc4ccccc4S(C)(=O)=O)c(C#N)s3)c2cc1OC` [GSK-319347A], the negative-log IC50 (pIC50) in experiment [1], in experiment [2], in experiment [3], in experiment [4], in experiment [5] and in experiment [7] was below 5.30 throughout. For the same compound, in experiment [8], the pIC50 is below 5.30.

For the compound `N[C@@H](CSC(c1ccccc1)(c1ccccc1)c1ccccc1)C(=O)O` [S-TRITYL-L-CYSTEINE], the pIC50 is 5.92 in experiment [1]; below 5.29 in experiment [2]; 5.56 in experiment [3]; below 5.29 in experiment [4]; 5.53 in experiment [5]; below 5.29 in experiment [6]. In addition, the pIC50 in experiment [7] and in experiment [8] was below 5.29 throughout.

As to `Cc1ccc(-c2c(C(=O)CCl)n(CCCO)c3ncnc(N)c23)cc1`, the pIC50 in experiment [1], in experiment [2], in experiment [3], in experiment [4], in experiment [5] and in experiment [6] was below 5.40 each time. Moreover, the pIC50 in experiment [7] and in experiment [8] was below 5.40 throughout.

Regarding `COc1cc(N2CCN(C)CC2)ccc1Nc1ncc2c(n1)N(C)c1ccccc1C(=O)N2C`, the negative logarithm of the IC50 (pIC50) in experiment [1] was below 5.10; in experiment [2], below 5.10; in experiment [3], 5.27; in experiment [4], below 5.10; in experiment [5] it was below 5.10; in experiment [7] it was below 5.10. For the same compound, in experiment [8], the pIC50 is 5.56.

As to `CC(=O)O[C@H]1C(=O)[C@@]2(C)[C@H]([C@H](OC(=O)c3ccccc3)[C@]3(O)C[C@H](OC(=O)[C@H](O)[C@@H](NC(=O)c4ccccc4)c4ccccc4)C(C)=C1C3(C)C)[C@]1(OC(C)=O)CO[C@@H]1C[C@@H]2O` [PACLITAXEL], the pIC50 in experiment [1] was 7.63; in experiment [2] it was below 6.99; in experiment [3], 8.49; in experiment [4], below 6.99; in experiment [5] it was 7.57; in experiment [6] it was below 6.99. Moreover, the pIC50 in experiment [7] and in experiment [8] was below 6.99 throughout.

For the compound `COc1cc(-c2nn([C@H]3CC[C@H](N4CCN(C(C)=O)CC4)CC3)c3ncnc(N)c23)ccc1NC(=O)c1cc2ccccc2n1C`, the pIC50 in experiment [1], in experiment [2], in experiment [3], in experiment [4], in experiment [5] and in experiment [6] was below 5.29 throughout. Also, the pIC50 in experiment [7] and in experiment [8] was below 5.29 each time.

Consider `CCN(CC)CCNC(=O)c1c(C)[nH]c(/C=C2\C(=O)Nc3ccc(F)cc32)c1C` [SUNITINIB], for which the pIC50 in experiment [1] is below 5.10; in experiment [2], below 5.10; in experiment [3] it was 5.86; in experiment [4], below 5.10; in experiment [5] it was 5.71; in experiment [6], below 5.10. Moreover, the pIC50 in experiment [7] and in experiment [8] was below 5.10 in each case.

With `OCCCNc1cc(-c2ccnc(Nc3cccc(Cl)c3)n2)ccn1`, the pIC50 is 6.92 in experiment [1]; below 6.59 in experiment [2]; 7.52 in experiment [3]; below 6.59 in experiment [4]; 7.07 in experiment [5]; 6.72 in experiment [6]. The pIC50 in experiment [7] and in experiment [8] was below 6.59 each time.
